Laboratory results: ChEMBL document CHEMBL1135600, “Novel tricyclic-alpha-alkyloxyphenylpropionic acids: dual PPARalpha/gamma agonists with hypolipidemic and antidiabetic activity” (J Med Chem, 2002)
Several values for one entry are separate records, joined by “and”; a condition that tells them apart may be missing. Identical values can stand only once.

Key:
Mus musculus [1] = species: Mus musculus; assay: Maximum achieved insulin reduction relative to vehicle treated control group; assay type: functional
Mus musculus [2] = species: Mus musculus; assay: Nonfasting triglycerides after 7 days treatment in male db/db mice; assay type: functional; details: 168 h
Mus musculus [3] = species: Mus musculus; assay: Nonfasting blood glucose after 7 days treatment in male db/db mice; assay type: functional; details: 168 h
Mus musculus [4] = species: Mus musculus; assay: Nonfasting insulin after 7 days treatment in male db/db mice; assay type: functional; details: 168 h
[5] = Oral half life was reported; assay type: ADME, organism-based; details: in vivo
[6] = Clearance after oral administration; assay type: ADME, organism-based; details: in vivo
[7] = Area under plasma concentration time curve after oral administration at a dose 2.2 mg/kg; assay type: ADME, organism-based; parameters: dose 2.2 mg/kg, route oral; details: in vivo
Mus musculus [8] = species: Mus musculus; assay: (§1) Maximum achieved blood glucose reduction relative to vehicle treated control group; assay type: functional
[9] = Maximum plasma concentration after oral administration at a dose 2.2 mg/kg; assay type: ADME, organism-based; parameters: dose 2.2 mg/kg, route oral
Mus musculus [10] = species: Mus musculus; assay: as §1; assay type: functional; remark: listed apart in the source
Mus musculus [11] = species: Mus musculus; assay: Maximum achieved triglycerides reduction relative to vehicle treated control group; assay type: functional
[12] = Oral bioavailability; assay type: ADME, organism-based; details: eutheria, in vivo
[13] = Area under blood glucose time curve after OGTT on the 9th day of treatment; assay type: ADME, tissue-based
[14] = target: T1, Peroxisome proliferator-activated receptor alpha (Homo sapiens, UniProt Q07869); assay: In vitro transactivation using receptor transactivation assay against hPPAR alpha; assay type: functional
T1 sequence (Q07869 whole entry): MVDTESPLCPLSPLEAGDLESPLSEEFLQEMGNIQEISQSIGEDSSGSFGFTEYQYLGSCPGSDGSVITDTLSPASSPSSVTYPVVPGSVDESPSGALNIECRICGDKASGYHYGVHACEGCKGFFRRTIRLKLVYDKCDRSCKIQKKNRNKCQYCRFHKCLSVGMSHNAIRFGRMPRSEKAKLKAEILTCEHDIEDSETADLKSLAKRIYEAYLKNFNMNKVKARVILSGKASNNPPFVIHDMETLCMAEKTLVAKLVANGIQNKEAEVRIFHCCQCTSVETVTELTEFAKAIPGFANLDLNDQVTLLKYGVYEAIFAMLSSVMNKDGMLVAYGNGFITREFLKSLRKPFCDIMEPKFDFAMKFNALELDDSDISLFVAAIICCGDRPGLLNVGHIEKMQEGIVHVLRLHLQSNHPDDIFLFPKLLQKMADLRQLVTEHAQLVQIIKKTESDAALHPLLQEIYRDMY

[15] = target: T2, Peroxisome proliferator-activated receptor gamma (Homo sapiens, UniProt P37231)
T2 sequence (P37231 whole entry): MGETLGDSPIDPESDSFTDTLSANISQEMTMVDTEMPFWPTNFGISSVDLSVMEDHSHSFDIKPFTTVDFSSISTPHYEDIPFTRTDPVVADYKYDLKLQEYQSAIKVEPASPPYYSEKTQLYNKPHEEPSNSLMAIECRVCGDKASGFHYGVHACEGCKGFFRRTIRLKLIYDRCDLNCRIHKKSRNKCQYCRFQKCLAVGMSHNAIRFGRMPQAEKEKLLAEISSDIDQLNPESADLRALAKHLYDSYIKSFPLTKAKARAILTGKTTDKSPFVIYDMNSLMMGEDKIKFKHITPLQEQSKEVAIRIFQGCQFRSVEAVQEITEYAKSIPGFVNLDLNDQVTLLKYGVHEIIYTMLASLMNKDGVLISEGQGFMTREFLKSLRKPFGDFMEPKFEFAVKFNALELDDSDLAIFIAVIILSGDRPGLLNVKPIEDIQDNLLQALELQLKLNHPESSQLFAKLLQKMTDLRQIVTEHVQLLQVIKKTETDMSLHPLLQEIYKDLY
Description: In vitro transactivation using receptor transactivation assay against hPPAR gamma

Mus musculus [16] = assay: In vivo % reduction of blood glucose area under curve after oral glucose tolerance test in male db/db mice at 1 mg/kg peroral dose of compound once in a day; assay type: ADME, organism-based; parameters: dose 1 mg/kg, route oral
[17] = Maximum achieved Nonfasted triglycerides reduction relative to vehicle treated control group; assay type: functional
Mus musculus [18] = assay: In vivo blood glucose level in male db/db mice after administration of 0.33 mg/kg peroral dose of compound thrice a day; assay type: functional; details: route oral
Mus musculus [19] = assay: In vivo blood glucose area under curve after oral glucose tolerance test in male db/db mice at 1 mg/kg peroral dose of compound once in a day; assay type: ADME, organism-based; parameters: dose 1 mg/kg, route oral
Mus musculus [20] = assay: In vivo blood glucose level in male db/db mice after administration of 1 mg/kg peroral dose of compound once in a day; assay type: functional; details: route oral
Mus musculus [21] = assay: In vivo % reduction of blood glucose level in male db/db mice after administration of 1 mg/kg peroral dose of compound once in a day; assay type: functional; details: route oral
Mus musculus [22] = assay: In vivo % reduction of blood glucose area under curve after oral glucose tolerance test in male db/db mice at 3 mg/kg peroral dose of compound once in a day; assay type: ADME, organism-based; parameters: dose 3 mg/kg, route oral
Mus musculus [23] = assay: In vivo blood glucose area under curve after oral glucose tolerance test in male db/db mice at 1 mg/kg peroral dose of compound thrice a day; assay type: ADME, organism-based; parameters: dose 1 mg/kg, route oral
Mus musculus [24] = assay: In vivo % reduction of blood glucose area under curve after oral glucose tolerance test in male db/db mice at 1 mg/kg peroral dose of compound thrice a day; assay type: ADME, organism-based; parameters: dose 1 mg/kg, route oral
[25] = Maximum achieved Total cholesterol reduction relative to vehicle treated control group; assay type: functional
Mus musculus [26] = assay: In vivo blood glucose level in male db/db mice after administration of 3 mg/kg peroral dose of compound once in a day; assay type: functional; details: route oral
Mus musculus [27] = assay: In vivo % reduction of blood glucose level in male db/db mice after administration of 1 mg/kg peroral dose of compound thrice a day; assay type: functional; details: route oral
Mus musculus [28] = assay: In vivo % reduction of blood glucose level in male db/db mice after administration of 0.33 mg/kg peroral dose of compound thrice a day; assay type: functional; details: route oral
Mus musculus [29] = assay: In vivo % reduction of blood glucose level in male db/db mice after administration of 3 mg/kg peroral dose of compound once in a day; assay type: functional; details: route oral
Mus musculus [30] = assay: In vivo blood glucose area under curve after oral glucose tolerance test in male db/db mice at 0.33 mg/kg peroral dose of compound thrice a day; assay type: ADME, organism-based; parameters: dose 0.33 mg/kg, route oral
Mus musculus [31] = assay: In vivo blood glucose level in male db/db mice after administration of 1 mg/kg peroral dose of compound thrice a day; assay type: functional; details: route oral
Mus musculus [32] = assay: In vivo % reduction of blood glucose area under curve after oral glucose tolerance test in male db/db mice at 0.33 mg/kg peroral dose of compound thrice a day; assay type: ADME, organism-based; parameters: dose 0.33 mg/kg, route oral
Mus musculus [33] = assay: In vivo blood glucose area under curve after oral glucose tolerance test in male db/db mice at 3 mg/kg peroral dose of compound once in a day; assay type: ADME, organism-based; parameters: dose 3 mg/kg, route oral

Description for in vivo: Volume of distribution during steady state

Row | SMILES | Max reduction (Mus musculus [1]) | ED50 (Mus musculus [2]) | ED50 (Mus musculus [3]) | ED50 (Mus musculus [4]) | CL/F [6] | AUC [7] | Max reduction (Mus musculus [8]) | Max reduction (Mus musculus [11]) | bioavailability [12] | AUC ED50 [13] | EC50 [14] | EC50 [15] | also measured
1 | CCc1ccc(CCOc2ccc(CC3SC(=O)NC3=O)cc2)nc1 (stereo not given) [PIOGLITAZONE] | 54% | 26.7 mg/kg | 2.62 mg/kg | 15.1 mg/kg | 1.4 mL/min/kg | 29.2 µg·h/mL | 53% | 21% | 112% | 12.09 mg/kg |  |  | half-life [5]: 228 min; Cmax [9]: 4660 ng/mL; Max reduction (Mus musculus [10]): 39%; Vd (in vivo): 0.22 L/kg
2 | CCOC(Cc1ccc(OCCN2c3ccccc3C=Cc3ccccc32)cc1)C(=O)O (stereo not given) |  |  |  |  |  |  |  |  |  |  | 9.5 µM | 760 nM | 
3 | CCOC(Cc1ccc(OCC=C2c3ccccc3OCOc3ccccc32)cc1)C(=O)O (stereo not given) |  |  |  |  |  |  |  |  |  |  |  | 3400 nM | 
4 | CCO[C@@H](Cc1ccc(OCCn2c3ccccc3c3cc(Br)ccc32)cc1)C(=O)O |  |  |  |  |  |  |  |  |  |  | 2.4 µM | 330 nM | 
5 | CN(CCOc1ccc(CC2SC(=O)NC2=O)cc1)c1ccccn1 (stereo not given) [ROSIGLITAZONE] | 43% | 0.14 mg/kg | 0.87 mg/kg | 0.07 mg/kg | 2.1 mL/min/kg | 14.6 µg·h/mL | 35% and 16% | 58% | 83% | 0.77 mg/kg |  |  | AUC glu reduction (Mus musculus [16]): 14%; Reduction [17]: 11%; BG (Mus musculus [18]): 11.35 mM; AUC glu (Mus musculus [19]): 2551 mM·min; BG (Mus musculus [20]): 16.08 mM; BG reduction (Mus musculus [21]): 25%; AUC glu reduction (Mus musculus [22]): 28%; AUC glu (Mus musculus [23]): 1423 mM·min; AUC glu reduction(mM x min) (Mus musculus [24]): 51%; Reduction [25]: 24%; Cmax ([9]; rat): 4420 ng/mL; BG (Mus musculus [26]): 11.72 mM; BG reduction (Mus musculus [27]): 39%; BG reduction (Mus musculus [28]): 47%; BG reduction (Mus musculus [29]): 45%; AUC glu (Mus musculus [30]): 2398 mM·min; BG (Mus musculus [31]): 13.06 mM; AUC glu reduction (Mus musculus [32]): 18%; AUC glu (Mus musculus [33]): 2141 mM·min
6 | CCOC(Cc1ccc(OCC=C2c3ccccc3-c3ccccc32)cc1)C(=O)O (stereo not given) |  |  |  |  |  |  |  |  |  |  | 12.5 µM | 12100 nM | 
